# Experimental data: publication PMC7902834, “A rotary mechanism for allostery in bacterial hybrid malic enzymes” (Nature Communications, 2021)
# pIC50, pKi: −log10 of the molar value.
# How the values were obtained:
# Assay type in all cases: biochemical
# [1] = molecular target: T1, MaeB (hybrid malic enzyme, Bd1833/MaeB) (Bdellovibrio bacteriovorus, UniProt Q6MM14+Q6MM15); assay: steady-state kinetics of reverse reductive carboxylation; set-up: gene mdh; full-length MaeB (Met1–Lys780)
# Target sequence in this assay (Q6MM15 entry or part of it): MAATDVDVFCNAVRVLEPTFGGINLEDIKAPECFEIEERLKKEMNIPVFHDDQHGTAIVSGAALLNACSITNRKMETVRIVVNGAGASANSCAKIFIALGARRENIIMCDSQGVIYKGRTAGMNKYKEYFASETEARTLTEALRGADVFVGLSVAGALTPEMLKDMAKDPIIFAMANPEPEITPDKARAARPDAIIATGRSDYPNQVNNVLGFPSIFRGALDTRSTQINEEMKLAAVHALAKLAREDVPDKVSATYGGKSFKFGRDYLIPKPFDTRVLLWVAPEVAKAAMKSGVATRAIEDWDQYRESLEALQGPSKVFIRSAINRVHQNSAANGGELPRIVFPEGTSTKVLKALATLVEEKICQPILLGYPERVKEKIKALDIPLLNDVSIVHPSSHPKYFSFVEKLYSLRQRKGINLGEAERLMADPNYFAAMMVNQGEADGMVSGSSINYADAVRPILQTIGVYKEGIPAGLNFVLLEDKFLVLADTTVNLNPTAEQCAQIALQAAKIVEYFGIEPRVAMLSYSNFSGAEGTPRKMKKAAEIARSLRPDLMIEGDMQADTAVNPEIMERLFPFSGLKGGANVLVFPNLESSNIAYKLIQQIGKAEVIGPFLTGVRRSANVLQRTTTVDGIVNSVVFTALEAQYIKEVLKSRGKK
# Target sequence in this assay (Q6MM14 entry or part of it): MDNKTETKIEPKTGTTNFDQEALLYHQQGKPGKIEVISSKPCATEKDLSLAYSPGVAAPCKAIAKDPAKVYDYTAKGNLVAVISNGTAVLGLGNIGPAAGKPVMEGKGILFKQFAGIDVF
# [2] = molecular target: T1, MaeB (hybrid malic enzyme, Bd1833/MaeB); assay: NADPH absorbance assay ([…] nm), single concentration […]; set-up: gene mdh; full-length MaeB (Met1–Lys780); details: read-out: % of uninhibited activity at 2 mM
# Target sequence in this assay (Q6MM15 entry or part of it): as the sequence (Q6MM15 entry or part of it) above
# Target sequence in this assay (Q6MM14 entry or part of it): as the sequence (Q6MM14 entry or part of it) above
# [3] = molecular target: T2, MaeB (hybrid malic enzyme, Bd1833/MaeB) (Bdellovibrio bacteriovorus, UniProt Q6MM15); assay: X-ray crystal structures of PTA domain and full-length; HPLC of co-purified ligand; enzyme inhibition kinetics (IC50 […]); set-up: gene mdh; full-length MaeB (Met1–Lys780) kinetics and crystal structure (6ZNG)
# T2 sequence (Q6MM14 entry or part of it): as above
# T2 sequence (Q6MM15 entry or part of it): as the sequence (Q6MM15 entry or part of it) above
# [4] = molecular target: T1, MaeB (hybrid malic enzyme, Bd1833/MaeB); assay: NADPH absorbance assay ([…] nm), single concentration […] ([…] activity left); set-up: gene mdh; full-length MaeB and MaeBME (Met1–Ala434)
# Target sequence in this assay (Q6MM14 entry or part of it): as the sequence (Q6MM14 entry or part of it) above
# Target sequence in this assay (Q6MM15 entry or part of it): as the sequence (Q6MM15 entry or part of it) above
# [5] = molecular target: T1, MaeB (hybrid malic enzyme, Bd1833/MaeB); assay: steady-state kinetics, NADPH absorbance; set-up: gene mdh; full-length MaeB (Met1–Lys780)
# Target sequence in this assay (Q6MM15 entry or part of it): as above
# Target sequence in this assay (Q6MM14 entry or part of it): as the sequence (Q6MM14 entry or part of it) above
# [6] = molecular target: T2, MaeB (hybrid malic enzyme, Bd1833/MaeB); assay: NADPH absorbance assay ([…] nm), dose response; set-up: gene mdh; full-length MaeB (Met1–Lys780), ligand-free MaeBapo
smiles,measurement,setting,value
CC(=O)C(=O)O [pyruvate],steady-state kinetics of reverse reductive carboxylation,[1],0.03 s⁻¹ mM⁻¹
CC(=O)OP(=O)(O)O [acetyl phosphate],activity at 2000 µM,[2],~50%
CC(=O)SCCNC(=O)CCNC(=O)[C@H](O)C(C)(C)COP(=O)(O)OP(=O)(O)OC[C@H]1O[C@@H](n2cnc3c(N)ncnc32)[C@H](O)[C@@H]1OP(=O)(O)O [acetyl-CoA],pKi,[3],6.15
O=C(O)CC(=O)C(=O)O [oxaloacetate],"NADPH absorbance assay (340 nm), single concentration 2 mM (<10% activity left)",[4],"oxaloacetate inhibited both MaeB and MaeBME activities, suggesting this effector interacts directly with the ME domain"
O=C(O)C[C@H](O)C(=O)O [L-malate],"steady-state kinetics, NADPH absorbance",[5],10.0 s⁻¹ mM⁻¹
CC(C)(COP(=O)(O)OP(=O)(O)OC[C@H]1O[C@@H](n2cnc3c(N)ncnc32)[C@H](O)[C@@H]1OP(=O)(O)O)[C@@H](O)C(=O)NCCC(=O)NCCS [CoA],pIC50,[6],4.69
